Paper PMC8911025, “Design, Synthesis, and Biological Evaluation of New Azulene-Containing Chalcones” (Materials, 2022)
In brackets after ≈: the same amount, converted by molar mass.

Legend:
S. aureus [1] = system: S. aureus; design: method as in PMID 15801857, PMID 19275612, PMID 15142563; details: literature chalcones Nr. Crtl. 1-38 of Table 7; cited from earlier work
S. aureus [2] = assay: Known antibacterial activity of literature chalcones used for QSAR; assay type: cell-based, Staphylococcus aureus; details: Aexp = 0.1 + log (k/MIC), k = 1.250
Description: The QSAR studies were carried out on 48 chalcones, including 10 synthesized azulenyl-chalcones, in order to identify the physicochemical parameter responsible for their antimicrobial activity against Staphylococcus aureus. The geometry optimization of the molecules was completed using PCModel and MOPAC programs. The descriptors were calculated using MOPAC, PRECLAV, and DRAGON software, and the descriptors and QSAR equations were selected using the PRECLAV algorithm. The best QSAR model was chosen based on the statistical parameters such as the square of the correlation coefficient (r^2), the Fischer’s value of significance (F), and the standard error of estimate(s).
Quantitative structure−activity relationship (QSAR) studies involving 38 chalcone derivatives (Table 7) with known antibacterial activity against S. aureus were developed. These studies were based upon observed activity and molecular descriptors. […] Two QSAR studies were performed: (i) one in which all 48 molecules were included in the calibration set and (ii) another with an external validation test. For the latter, 10 molecules were randomly chosen to be part of the validation test, whereas the rest were part of the calibration set. The result of the external validation depends strongly, among other things, on the procedures for the extraction of the calibration and validation sets from the initial database.

Escherichia coli = assay: Antibiofilm activity (crystal violet, A490); assay type: cell-based; details: biofilm, read-out: MBEC
Description: (§1) The effect of the chalcones on the biofilm formation was evaluated after the determination of the MICs. Briefly, the plates were emptied, washed to remove the nonadherent cells, fixed with methanol, and stained with crystal violet. The antibiofilm activity was determined after adding 33% acetic acid solution by measuring the absorbance at 490 nm, and the results are listed in Table 6.
(§2) The azulene-chalcone derivatives were tested for their ability to affect biofilm formation since 80% of the world’s microbial biomass is found in the biofilm state. The most efficient compound was again chalcone 6 with MBEC of 0.156–0.625 mg/mL (Table 6).

Candida parapsilosis = assay: Antibiofilm activity (crystal violet, A490); assay type: cell-based; details: Lodderomyces parapsilosis, biofilm, read-out: MBEC
Description: as §1, §2

Staphylococcus aureus = assay: Antibiofilm activity (crystal violet, A490); assay type: cell-based; details: biofilm, read-out: MBEC
Description: as §1, §2

Pseudomonas aeruginosa = assay: Antibiofilm activity (crystal violet, A490); assay type: cell-based; details: biofilm, read-out: MBEC
Description: as §1, §2

[3] = system: Staphylococcus aureus ATCC 25923; assay: MIC, binary serial dilution in 96-well plates; assay type: cell-based
Description: (§3) The antimicrobial activity of all compounds was assessed on Gram-positive bacteria (Staphylococcus aureus ATCC 25923), Gram-negative bacteria (Escherichia coli ATCC 25922, Pseudomonas aeruginosa ATCC 27853), and fungi (Candida parapsilosis ATCC 22019) using quantitative binary serial dilution method in 96-well plates. The negative control was represented by wells with culture medium, while positive control was the microbial strain in broth. Briefly, binary serial dilutions of the compounds performed in 100 μL of broth were seeded with microbial inoculum of 10^6 colony forming units (CFU)/mL and incubated for 24 h at 37 °C. […] Due to the fact that the obtained compounds were colored, after the incubation of the 96-well plates, from each well, 10 µL were seeded on agar plates (Plate Count Agar) to determine the inhibitory concentration. The same value of the inhibitory concentration was obtained in repeated experiments.
(§4) The antibacterial effect of the azulene moiety introduced in the chalcone structure was investigated against Gram-positive (Staphylococcus aureus ATCC 25923) and Gram-negative (Escherichia coli ATCC 25922, Pseudomonas aeruginosa ATCC 27853) bacteria, while the antifungal effect was tested against Candida parapsilosis ATCC 22019. To our knowledge, the antibacterial activity of azulene-containing chalcone compounds has not been reported previously; moreover, this is the first investigation of the biological properties of azulene-containing chalcones in general. The results expressed in terms of minimum inhibitory concentration (MIC) were determined by in vitro screening of the antimicrobial properties using the broth microdilution method and are summarized in Table 5.

[4] = system: Pseudomonas aeruginosa ATCC 27853; assay: MIC, binary serial dilution in 96-well plates; assay type: cell-based; details: ATCC27853; Pseudomonas aeruginosa ATCC 27853, 24 h at 37 °C
Description: as §3, §4

[5] = system: Escherichia coli ATCC 25922; assay: MIC, binary serial dilution in 96-well plates; assay type: cell-based; details: ATCC25922; Escherichia coli ATCC 25922, 24 h at 37 °C
Description: as §3, §4

[6] = Cell viability assay (CellTiter Glo); assay type: cell-based; details: human; HEp-2 cells, 48 h, CellTiter Glo; read-out: IC50 (50% cytotoxic concentration)
Description: To assess the toxicity of the azulene-containing chalcones, the adherent cell line HEp-2 (American Cell Type Collection [ATCC] CCL-23^TM) was used.
In order to estimate the cytotoxicity of the compounds, HEp-2 cells (American Cell Type Collection (ATCC) CCL-23) were exposed to the azulene-containing chalcones at concentrations of 200, 100, 50, and 25 μg/mL and evaluated using CellTiter Glo kit (Promega, Madison, WI, USA) assay. The results presented in Figure 3 are expressed as viability percentages versus control.

[7] = system: Candida parapsilosis ATCC 22019; assay: MIC (antifungal), binary serial dilution in 96-well plates; assay type: cell-based; details: Lodderomyces parapsilosis, ATCC22019; Candida parapsilosis ATCC 22019, 24 h at 37 °C
Description: as §3, §4
We further tested the azulene-containing chalcone compounds for antifungal activity against Candida parapsilosis ATCC 22019.

Compound | MIC (S. aureus [1]) | Aexp (S. aureus [2]) | other results
COc1cccc(/C=C/C(=O)c2ccc(Cl)cc2)c1O [Nr. Crtl. 8] | 250 µg/mL (≈ 866 µM) | 0.799 | –
O=C(/C=C/c1ccc2cccccc1-2)c1ccc2ccccc2c1 [Compound 5, (E)-3-(Azulen-1-yl)-1-(naphthalen-2-yl)prop-2-en-1-one] | – | – | minimal effective concentration (Escherichia coli): 625 µg/mL; minimal effective concentration (Candida parapsilosis): 625 µg/mL; minimal effective concentration (Staphylococcus aureus): 2500 µg/mL; minimal effective concentration (Pseudomonas aeruginosa): 1250 µg/mL; MIC ([3]; ATCC25923, Staphylococcus aureus ATCC 25923, 24 h at 37 °C): 1250 µg/mL (≈ 4050 µM); Aexp ([3]; Aexp = 0.1 + log (k/MIC), k = 1.250, compounds synthesized herein): 0.100; MIC [4]: 625 µg/mL (≈ 2030 µM); MIC [5]: 625 µg/mL (≈ 2030 µM); IC50 at 48 h [6]: 102 µg/mL (≈ 332 µM); MIC [7]: 312 µg/mL (≈ 1010 µM)
COc1ccc(/C=C/C(=O)c2ccccc2)cc1O [Nr. Crtl. 7] | 250 µg/mL (≈ 983 µM) | 0.799 | –
O=C(/C=C/c1ccccc1O)c1ccc(Cl)cc1 [Nr. Crtl. 19] | 125 µg/mL (≈ 483 µM) | 1.100 | –
O=C(O)c1ccc(C(=O)/C=C/c2cc(Cl)cc(Cl)c2)cc1 [Nr. Crtl. 29] | 40 µg/mL (≈ 125 µM) | 1.595 | –
O=C(/C=C/c1ccc(Cl)cc1Cl)c1cc(F)c(O)c(F)c1 [Nr. Crtl. 10] | 150 µg/mL (≈ 456 µM) | 1.021 | –
COc1cc(/C=C/C(=O)c2ccccc2)ccc1O [Nr. Crtl. 1] | 500 µg/mL (≈ 1970 µM) | 0.498 | –
O=C(/C=C/c1ccc(O)c(O)c1)c1ccccc1 [Nr. Crtl. 17] | 125 µg/mL (≈ 520 µM) | 1.100 | –
Cc1cc(C)cc(/C=C/C(=O)c2ccc(C(=O)O)cc2)c1 [Nr. Crtl. 25] | 75 µg/mL (≈ 268 µM) | 1.322 | –
O=C(O)c1ccc(C(=O)/C=C/c2ccc(Cl)cc2)cc1 [Nr. Crtl. 12] | 150 µg/mL (≈ 523 µM) | 1.021 | –
O=C(O)c1ccc(C(=O)/C=C/c2cccc(C(F)(F)F)c2)cc1 [Nr. Crtl. 28] | 40 µg/mL (≈ 125 µM) | 1.595 | –
O=C(/C=C/c1ccc(O)cc1)c1ccc(Cl)cc1 [Nr. Crtl. 21] | 125 µg/mL (≈ 483 µM) | 1.100 | –
O=C(/C=C/c1ccc(O)cc1)c1ccccc1 [Nr. Crtl. 16] | 125 µg/mL (≈ 557 µM) | 1.100 | –
O=C(O)c1ccc(C(=O)/C=C/c2cc(F)cc(F)c2)cc1 [Nr. Crtl. 15] | 150 µg/mL (≈ 520 µM) | 1.021 | –
O=C(O)c1ccc(C(=O)/C=C/c2ccc(Cl)cc2Cl)cc1 [Nr. Crtl. 30] | 40 µg/mL (≈ 125 µM) | 1.595 | –
O=C(/C=C/c1ccc(Cl)cc1Cl)c1ccc(O)c(F)c1 [Nr. Crtl. 3] | 300 µg/mL (≈ 964 µM) | 0.720 | –
O=C(O)c1ccc(C(=O)/C=C/c2ccccc2Cl)cc1 [Nr. Crtl. 13] | 150 µg/mL (≈ 523 µM) | 1.021 | –
O=C(/C=C/c1cccc(O)c1)c1ccc(Cl)cc1 [Nr. Crtl. 20] | 125 µg/mL (≈ 483 µM) | 1.100 | –
O=C(O)c1ccc(C(=O)/C=C/c2cccc(Cl)c2)cc1 [Nr. Crtl. 23] | 75 µg/mL (≈ 262 µM) | 1.322 | –
O=C(/C=C/c1ccc(Cl)cc1Cl)c1ccc(O)cc1 [Nr. Crtl. 31] | 20 µg/mL (≈ 68.2 µM) | 1.896 | –
